From ChEMBL document CHEMBL3046358, “Multiple Pro-197 substitutions in the acetolactate synthase of rigid ryegrass (Lolium rigidum) and their impact on chlorsulfuron activity and plant growth” (Crop Prot, 2012)
pIC50: −log10 of the molar value.

Legend:
[1] = target: T1, Acetolactate synthase (Lolium rigidum) (UniProt A7XBP7); test: Resistance index, ratio of I50 for acetolactate synthase Pro-197/Pro-197 mutant in Lolium rigidum accession A11 leaves extracts to I50 for acetolactate synthase in Lolium rigidum accession A01 leaves extracts
T1 sequence (whole entry): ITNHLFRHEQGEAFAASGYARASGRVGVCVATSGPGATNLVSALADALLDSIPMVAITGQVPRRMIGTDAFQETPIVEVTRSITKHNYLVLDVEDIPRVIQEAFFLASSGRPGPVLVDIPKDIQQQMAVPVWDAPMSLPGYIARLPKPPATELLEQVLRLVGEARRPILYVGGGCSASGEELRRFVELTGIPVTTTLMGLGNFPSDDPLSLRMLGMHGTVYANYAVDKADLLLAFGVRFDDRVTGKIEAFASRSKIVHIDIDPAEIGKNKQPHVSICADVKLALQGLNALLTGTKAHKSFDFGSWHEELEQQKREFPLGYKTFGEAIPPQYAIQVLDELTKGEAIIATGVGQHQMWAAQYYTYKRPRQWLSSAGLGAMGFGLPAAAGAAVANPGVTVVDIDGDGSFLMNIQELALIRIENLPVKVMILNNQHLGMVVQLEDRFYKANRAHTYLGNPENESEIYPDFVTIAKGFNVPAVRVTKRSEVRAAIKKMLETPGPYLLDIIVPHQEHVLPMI

Lolium rigidum [2] = test: Herbicidal activity against Lolium rigidum accession A06 assessed as fresh weight reduction applied at 4 times pre-emergence recommended rate relative to untreated control; format: functional; design: scale not given: the % may be the effect or the level left
Lolium rigidum [3] = test: Herbicidal activity against Lolium rigidum accession A12 assessed as fresh weight reduction applied at 4 times pre-emergence recommended rate relative to untreated control; format: functional; design: scale not given: the % may be the effect or the level left
Lolium rigidum [4] = test: Herbicidal activity against Lolium rigidum accession A15 assessed as emergence rate applied at 4 times pre-emergence recommended rate relative to untreated control; format: functional
Lolium rigidum [5] = test: Herbicidal activity against Lolium rigidum accession A07 assessed as fresh weight reduction applied at 1 times pre-emergence recommended rate relative to untreated control; format: functional; design: scale not given: the % may be the effect or the level left
Lolium rigidum [6] = test: Herbicidal activity against Lolium rigidum accession A09 assessed as fresh weight reduction applied at 4 times pre-emergence recommended rate relative to untreated control; format: functional; design: scale not given: the % may be the effect or the level left
Lolium rigidum [7] = test: Herbicidal activity against Lolium rigidum accession A11 assessed as fresh weight reduction applied at 4 times pre-emergence recommended rate relative to untreated control; format: functional; design: scale not given: the % may be the effect or the level left
Lolium rigidum [8] = test: Herbicidal activity against Lolium rigidum accession A14 assessed as emergence rate applied at 4 times pre-emergence recommended rate relative to untreated control; format: functional
Lolium rigidum [9] = test: Herbicidal activity against Lolium rigidum accession A05 assessed as fresh weight reduction applied at 1 times pre-emergence recommended rate relative to untreated control; format: functional; design: scale not given: the % may be the effect or the level left
[10] = target: T1, Acetolactate synthase (Lolium rigidum); test: Resistance index, ratio of I50 for acetolactate synthase Ala-197/Ala-197 mutant in Lolium rigidum accession A20 leaves extracts to I50 for acetolactate synthase in Lolium rigidum accession A01 leaves extracts
Lolium rigidum [11] = test: Herbicidal activity against Lolium rigidum accession A12 assessed as fresh weight reduction applied at 1 times pre-emergence recommended rate applied in pots where terbufos had been incorporated into the soil relative to untreated control; format: functional; design: scale not given: the % may be the effect or the level left
Lolium rigidum [12] = test: Herbicidal activity against Lolium rigidum accession A09 assessed as emergence rate applied at 1 times pre-emergence recommended rate relative to untreated control; format: functional
Acetolactate synthase [13] = target: Acetolactate synthase (Lolium rigidum, UniProt A7XBP7); test: Inhibition of acetolactate synthase Ala-197/Ala-197 mutant in Lolium rigidum accession A19 leaves extracts by acetolactate production assay; conditions: read-out: I50
Lolium rigidum [14] = test: Herbicidal activity against Lolium rigidum accession A02 assessed as emergence rate applied at 1 times pre-emergence recommended rate relative to untreated control; format: functional
Acetolactate synthase [15] = target: Acetolactate synthase (Lolium rigidum, UniProt A7XBP7, P197R/P197S); test: Inhibition of acetolactate synthase Pro-197/Arg-197 or Pro-197/Ser-197 or Pro/Val or Ala/Leu mutant in Lolium rigidum accession A17 leaves extracts by acetolactate production assay; conditions: read-out: I50
[16] = target: T1, Acetolactate synthase (Lolium rigidum); test: Resistance index, ratio of I50 for acetolactate synthase Pro-197/Arg-197 or Pro-197/Ser-197 or Pro/Val or Ala/Leu mutant in Lolium rigidum accession A17 leaves extracts to I50 for acetolactate synthase in Lolium rigidum accession A01 leaves extracts
Lolium rigidum [17] = test: Herbicidal activity against Lolium rigidum accession A06 assessed as emergence rate applied at 4 times pre-emergence recommended rate relative to untreated control; format: functional
Lolium rigidum [18] = test: Herbicidal activity against Lolium rigidum accession A03 assessed as emergence rate applied at 4 times pre-emergence recommended rate relative to untreated control; format: functional
Lolium rigidum [19] = test: Herbicidal activity against Lolium rigidum accession A02 assessed as fresh weight reduction applied at 1 times pre-emergence recommended rate applied in pots where terbufos had been incorporated into the soil relative to untreated control; format: functional; design: scale not given: the % may be the effect or the level left
[20] = target: T1, Acetolactate synthase (Lolium rigidum); test: Resistance index, ratio of I50 for acetolactate synthase Pro-197/Pro-197 mutant in Lolium rigidum accession A09 leaves extracts to I50 for acetolactate synthase in Lolium rigidum accession A01 leaves extracts
Lolium rigidum [21] = test: Herbicidal activity against Lolium rigidum accession A13 assessed as fresh weight reduction applied at 4 times pre-emergence recommended rate relative to untreated control; format: functional; design: scale not given: the % may be the effect or the level left
Lolium rigidum [22] = test: Herbicidal activity against Lolium rigidum accession A06 assessed as emergence rate applied at 1 times pre-emergence recommended rate applied in pots where terbufos had been incorporated into the soil relative to untreated control; format: functional
Lolium rigidum [23] = test: Herbicidal activity against Lolium rigidum accession A13 assessed as fresh weight reduction applied at 1 times pre-emergence recommended rate applied in pots where terbufos had been incorporated into the soil relative to untreated control; format: functional; design: scale not given: the % may be the effect or the level left
Lolium rigidum [24] = test: Herbicidal activity against Lolium rigidum accession A03 assessed as fresh weight reduction applied at 1 times pre-emergence recommended rate relative to untreated control; format: functional; design: scale not given: the % may be the effect or the level left
Lolium rigidum [25] = test: Herbicidal activity against Lolium rigidum accession A05 assessed as emergence rate applied at 4 times pre-emergence recommended rate relative to untreated control; format: functional
Lolium rigidum [26] = test: Herbicidal activity against Lolium rigidum accession A14 assessed as fresh weight reduction applied at 4 times pre-emergence recommended rate relative to untreated control; format: functional; design: scale not given: the % may be the effect or the level left
[27] = target: T1, Acetolactate synthase (Lolium rigidum); test: Resistance index, ratio of I50 for acetolactate synthase Leu-197/Leu-197 mutant in Lolium rigidum accession A08 leaves extracts to I50 for acetolactate synthase in Lolium rigidum accession A01 leaves extracts
Lolium rigidum [28] = test: Herbicidal activity against Lolium rigidum accession A06 assessed as fresh weight reduction applied at 1 times pre-emergence recommended rate applied in pots where terbufos had been incorporated into the soil relative to untreated control; format: functional; design: scale not given: the % may be the effect or the level left
Lolium rigidum [29] = test: Herbicidal activity against Lolium rigidum accession A11 assessed as fresh weight reduction applied at 1 times pre-emergence recommended rate relative to untreated control; format: functional; design: scale not given: the % may be the effect or the level left
Lolium rigidum [30] = test: Herbicidal activity against Lolium rigidum accession A02 assessed as emergence rate applied at 1 times pre-emergence recommended rate applied in pots where terbufos had been incorporated into the soil relative to untreated control; format: functional
[31] = target: T1, Acetolactate synthase (Lolium rigidum); test: Resistance index, ratio of I50 for acetolactate synthase Pro-197/Leu-197 mutant in Lolium rigidum accession A07 leaves extracts to I50 for acetolactate synthase in Lolium rigidum accession A01 leaves extracts
Lolium rigidum [32] = test: Herbicidal activity against Lolium rigidum accession A14 assessed as fresh weight reduction applied at 1 times pre-emergence recommended rate applied in pots where terbufos had been incorporated into the soil relative to untreated control; format: functional; design: scale not given: the % may be the effect or the level left

COc1nc(C)nc(NC(=O)NS(=O)(=O)c2ccccc2Cl)n1 [CHLORSULFURON]
Ratio [1]: 1 | Activity (Lolium rigidum [2]): 11% | Activity (Lolium rigidum [3]): 99% | Activity (Lolium rigidum [4]): 2% | Activity (Lolium rigidum [5]): 0% | Activity (Lolium rigidum [6]): 95% | Activity (Lolium rigidum [7]): 90% | Activity (Lolium rigidum [8]): 1% | Activity (Lolium rigidum [9]): 0% | Ratio [10]: 36 | Activity (Lolium rigidum [11]): 100% | Activity (Lolium rigidum [12]): 44% | pIC50 (Acetolactate synthase [13]): 4.73 | Activity (Lolium rigidum [14]): 2% | pIC50 (Acetolactate synthase [15]): 6.06 | Ratio [16]: 29 | Activity (Lolium rigidum [17]): 84% | Activity (Lolium rigidum [18]): 1% | Activity (Lolium rigidum [19]): 100% | Ratio [20]: 1 | Activity (Lolium rigidum [21]): 99% | Activity (Lolium rigidum [22]): 92% | Activity (Lolium rigidum [23]): 100% | Activity (Lolium rigidum [24]): 95% | Activity (Lolium rigidum [25]): 90% | Activity (Lolium rigidum [26]): 96% | Ratio [27]: 564 | Activity (Lolium rigidum [28]): 0% | Activity (Lolium rigidum [29]): 54% | Activity (Lolium rigidum [30]): 0% | Ratio [31]: 61 | Activity (Lolium rigidum [32]): 98%
